# Laboratory results as given in patent US20240024317A1, “CANCER TREATMENT USING BOSENTAN IN COMBINATION WITH A CHECKPOINT INHIBITOR” (Materia Therapeutics Inc., priority 2020, published 2024).
# Columns and labels:
# Format in all cases: in vivo, mice
# [1] = system: orthotopic E0771 breast tumors; assay: Pimonidazole hypoxia staining; conditions: 1 mg/kg; E0771 (FIG. 2A)
# Procedure: Because reducing collagen I levels and tissue stiffness decompresses vessels, it was hypothesized that hypoxia, which is an indicator of decreased blood flow to the tumor, would be reduced with bosentan treatment. […] For the hypoxia studies, Mice bearing orthotopic E0771 or 4T1 breast tumors were injected (intraperitoneal) with 60 mg/kg of pimonidazole HCl at 2 hr prior to tumor removal. Prior to tumors excision, animals were anesthetized via Avertin (200 mg/kg, intraperitoneal). Primary tumors were then excised, fixed in 4% PFA, embedded in OCT and processed accordingly for IHC. Hypoxic regions were detected using the mouse anti-pimonidazole RED 549 conjugate antibody (HP7-100Kit, 1:100). Hypoxic area fraction across different treatment groups was normalized to DAPI staining. For fluorescent immunohistochemistry, tumors were removed, washed twice in 1× PBS for 10 min and incubated with 4% PFA overnight at 4° C. The fixative was aspirated, and samples washed twice in 1× PBS for 10 min. Fixed tissues were embedded in optimal cutting temperature compound in cryomolds (Tissue-Tek) and frozen completely at −20° C. […] CD31 signal was detected with Alexa Fluor-488 anti-rabbit IgG (H+L) and CD3 signal with Alexa Fluor-647 anti-rat IgG (H+L) secondary antibodies. Tumor associated T cell and vessel content was determined by the CD31 and CD3 area fraction normalized to DAPI staining. […]
# E0771 tumors [2] = assay: Interstitial fluid pressure (IFP), wick-in-needle technique; conditions: 1 mg/kg bosentan
# Procedure: Mice bearing syngeneic, orthotopic triple negative breast cancer (TNBC) were treated with a range of sub-therapeutic doses of bosentan, from 0.2 mg/kg to 10 mg/kg of body weight. Orthotopic models for murine mammary tumors were generated by implantation of 5×10^4 4T1 or E0771 cancer cells in 40 μl of serum-free medium into the third mammary fat pad of 6-8-week-old BALB/c and C57BL/6 female mice, respectively. 4T1 (ATCC® CRL-2539TH) and E0771 (94A001, CH3 BioSystems) mouse breast adenocarcinoma cell lines were purchased form ATCC and CH3 BioSystems, respectively. The cells were maintained at 37° C./5% CO2 in Roswell Park Memorial Institute medium (RPMI-1640, LM-R1637, Biosera) supplemented with 10% fetal bovine serum (FBS, FB-1001H, biosera) and 1% antibiotics (A5955, Sigma). Bosentan (bosentan Hydrate (S3051, Selleckchem) was dissolved in ddH2O containing 2% DMSO (GK2245, Glentham Life Science), 30% PEG300 (S6704, Selleckchem) and 2% Tween 80 (S6702, Selleckchem)) 1 mg/kg, 5 mg/kg, 10 mg/kg or equal volume of diluent (control group) was administered by intraperitoneal injection (i.p.) once a day for 10 days, starting from once the tumor volumes reached an average size of 100 mm^3. Tumors were excised when they reached an average size of 500 mm^3. Tissue stiffness was then measured non-invasively and longitudinally using ultrasound elastography. […]
# E0771 tumors [3] = assay: Atomic force microscopy (AFM) Young's modulus and stiffness fingerprint of excised tumors
structure (smiles),measurement,setting,value
"COc1ccccc1Oc1c(NS(=O)(=O)c2ccc(C(C)(C)C)cc2)nc(-c2ncccn2)nc1OCCO [bosentan, 4-tert-butyl-N-[6-(2-hydroxy-ethoxy)-5-(2-methoxy-phenoxy)-2-(pyrimidin-2-yl)pyrimidin-4-yl] benzenesulfonamide]",hypoxia (pimonidazole staining),[1],reduced hypoxia
same,interstitial fluid pressure,E0771 tumors [2],decrease in interstitial fluid pressure
same,"tissue stiffness, Young's modulus by atomic force microscopy","E0771 tumors [3]; 1 mg/kg daily bosentan, excised E0771 tumors",confirmed
same,mechanical fingerprint of the tissue (AFM stiffness histogram),E0771 tumors [3]; tumors treated with 1 mg/kg,large contribution from cancer cells and little contribution from collagen
same,mechanical fingerprint of the tissue (AFM stiffness histogram),E0771 tumors [3]; tumors treated with 10 mg/kg,heterogenous collagen contribution
